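Following 48 hours of exposure in 96-well plates, responses at five concentrations were used to interpolate endpoints linearly. GI50 is the concentration that inhibits growth by half. TGI denotes the concentration required for complete inhibition of growth.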
Columns and labels:
Assay in all cases: NCI tumour cell line growth inhibition, 48 h
[1] = tested on: HOP-62 NSCLC
[2] = tested on: RPMI-8226 leukemia
[3] = tested on: A549 NSCLC
[4] = tested on: UO-31 renal
[5] = tested on: SNB-19 CNS
[6] = tested on: HL-60(TB) leukemia
[7] = tested on: HCT-15 colon
[8] = tested on: UACC-62 melanoma
[9] = tested on: M14 melanoma
[10] = tested on: SNB-75 CNS

Molecule Cc1ncc(C(=O)Nc2ccc(CN3CCN(C)CC3)c(C(F)(F)F)c2)cc1C#Cc1cnc(NC2CC2)c2ncccc12 has a GI50 [1] of 1.41 µM, a TGI [1] of 3.06 µM and a GI50 [2] of 0.621 µM. For the same molecule, the TGI [2] was 1.62 µM, the GI50 [3] was 0.682 µM and the TGI [3] was 1.33 µM. The GI50 [4] was 0.675 µM, the TGI [4] was 1.19 µM and the GI50 [5] was 0.713 µM. It also gave a TGI [5] of 1.32 µM, a GI50 [6] of 0.67 µM and a TGI [6] of 1.47 µM. It also gave a GI50 [7] of 0.566 µM, a TGI [7] of 1.1 µM and a GI50 [8] of 0.874 µM. The TGI [8] was 2.38 µM, the GI50 [9] was 0.56 µM and the TGI [9] was 1.11 µM. The GI50 [10] was 1.81 µM and the TGI [10] was 5.75 µM.

Molecule O=C1C(SCCO)=C(SCCO)C(=O)c2ccccc21 has a TGI [1] of 3.77 µM, a TGI [2] of 3.09 µM and a TGI [3] of 3.7 µM. The TGI [4] was 2.57 µM, the TGI [5] was 3.23 µM and the TGI [6] was 7.91 µM. The TGI [7] was 3.58 µM, the TGI [8] was 2.84 µM and the TGI [9] was 2.5 µM. The TGI [10] was 2.57 µM.

For C=CCO/N=C/c1cc(NC(=S)c2ccoc2C)ccc1Cl, the TGI [1] was 29.5 µM, the TGI [2] was 12.1 µM and the TGI [3] was > 100 µM. The TGI [4] was 19.4 µM, the TGI [5] was 21.2 µM and the TGI [6] was 46 µM. It also gave a TGI [7] of 23.8 µM, a TGI [8] of 35.5 µM and a TGI [9] of 37.9 µM. The TGI [10] was 38.2 µM.

COCCOCCOCc1n(Cc2ccc3ccccc3n2)c2ccccc2[n+]1Cc1ccc2ccccc2c1 gave a GI50 [1] of 0.468 µM, a TGI [1] of 2.52 µM and a GI50 [2] of 0.185 µM. The TGI [2] was 1.33 µM, the GI50 [3] was 0.748 µM and the TGI [3] was 10.6 µM. The GI50 [4] was 2.29 µM, the TGI [4] was 11.2 µM and the GI50 [5] was 0.441 µM. For the same molecule, the TGI [5] was 1.62 µM, the GI50 [6] was 0.187 µM and the TGI [6] was 0.476 µM. It also gave a GI50 [7] of 3.48 µM, a TGI [7] of 13.6 µM and a GI50 [8] of 0.364 µM. It also gave a TGI [8] of 1.36 µM, a GI50 [9] of 0.414 µM and a TGI [9] of 1.94 µM. For the same molecule, the GI50 [10] was 0.312 µM and the TGI [10] was 1.35 µM.

In the case of CCCCCCCCCCCCCCCCCCNC(=O)[C@H]1CSC(c2cccs2)N1 (some centres undefined), the GI50 [1] is reported as 0.959 µM, the TGI [1] is reported as 1.71 µM and the GI50 [2] is reported as 0.985 µM. For the same molecule, the TGI [2] was 2.41 µM, the GI50 [3] was 1.69 µM and the TGI [3] was > 50 µM. The GI50 [4] was 10.3 µM, the TGI [4] was > 50 µM and the GI50 [5] was 3.6 µM. The TGI [5] was > 50 µM, the GI50 [6] was 0.919 µM and the TGI [6] was 2.06 µM. The GI50 [7] was 2.08 µM, the TGI [7] was > 50 µM and the GI50 [8] was 0.908 µM. The TGI [8] was 1.69 µM, the GI50 [9] was 0.868 µM and the TGI [9] was 1.66 µM. The GI50 [10] was 0.811 µM and the TGI [10] was 1.58 µM.

With O=C(O)CCC(NC(=S)S)C(=O)O.[Na+].[Zn+2] (centres undefined) the GI50 [1] was > 50 µM, the TGI [1] was > 50 µM and the GI50 [2] was > 50 µM. The TGI [2] was > 50 µM, the GI50 [3] was > 50 µM and the TGI [3] was > 50 µM. The GI50 [4] was > 50 µM, the TGI [4] was > 50 µM and the GI50 [5] was > 50 µM. The TGI [5] was > 50 µM, the GI50 [6] was > 50 µM and the TGI [6] was > 50 µM. For the same molecule, the GI50 [7] was > 50 µM, the TGI [7] was > 50 µM and the GI50 [8] was > 50 µM. For the same molecule, the TGI [8] was > 50 µM, the GI50 [9] was > 50 µM and the TGI [9] was > 50 µM. For the same molecule, the GI50 [10] was > 50 µM and the TGI [10] was > 50 µM.

With CCCCCCCCCCCC[n+]1ccccc1 (tested in a mixture with another compound) the GI50 [1] was 1.15 µM, the TGI [1] was 3.59 µM and the GI50 [2] was 0.23 µM. For the same molecule, the TGI [2] was 1.52 µM, the GI50 [3] was 1.68 µM and the TGI [3] was 4.43 µM. The GI50 [4] was 2.24 µM, the TGI [4] was 14.8 µM and the GI50 [5] was 1.29 µM. The TGI [5] was 3.48 µM, the GI50 [6] was 0.253 µM and the TGI [6] was 1.04 µM. For the same molecule, the GI50 [7] was 3.8 µM, the TGI [7] was 19.3 µM and the GI50 [8] was 1.09 µM. It also gave a TGI [8] of 2.54 µM, a GI50 [9] of 1.1 µM and a GI50 [10] of 1.08 µM. The TGI [10] was 3.84 µM.

With CCCCCCCCCCCCCC(=O)OCC1OC(=O)CC1O (centres undefined) the TGI [1] was > 100 µM, the TGI [2] was > 100 µM and the TGI [3] was > 100 µM. The TGI [4] was 81.6 µM, the TGI [5] was > 100 µM and the TGI [6] was > 100 µM. For the same molecule, the TGI [7] was 74.5 µM, the TGI [8] was > 100 µM and the TGI [9] was 47.9 µM. The TGI [10] was > 100 µM.

With Cc1cc(Nc2nc(SCc3ccc(C(=O)Nc4ccc(F)cc4N)cc3)nn3cccc23)n[nH]1 the GI50 [1] was 0.556 µM, the TGI [1] was > 100 µM and the GI50 [2] was 0.514 µM. The TGI [2] was 3.72 µM, the GI50 [3] was 0.886 µM and the TGI [3] was 36.8 µM. The GI50 [4] was 1.33 µM, the TGI [4] was 11 µM and the GI50 [5] was 0.536 µM. For the same molecule, the TGI [5] was > 100 µM, the GI50 [6] was 0.268 µM and the TGI [6] was 0.785 µM. For the same molecule, the GI50 [7] was 0.424 µM, the TGI [7] was > 100 µM and the GI50 [8] was 0.347 µM. The TGI [8] was 21.6 µM, the GI50 [9] was 0.289 µM and the TGI [9] was 15.7 µM. The GI50 [10] was 0.198 µM and the TGI [10] was 35.4 µM.

CC1CCCc2c1nn(C(=O)/C=C(\N)c1ccccc1)c2N (centres undefined) was tested, and the GI50 [1] was 8.49 µM, the TGI [1] was > 100 µM and the GI50 [2] was 9.13 µM. For the same molecule, the TGI [2] was > 100 µM, the GI50 [3] was 9.06 µM and the TGI [3] was > 100 µM. The GI50 [4] was 3.92 µM, the TGI [4] was > 100 µM and the GI50 [5] was 25.2 µM. For the same molecule, the TGI [5] was > 100 µM, the GI50 [6] was 5.96 µM and the TGI [6] was 44.3 µM. For the same molecule, the GI50 [7] was 5.85 µM, the TGI [7] was > 100 µM and the GI50 [8] was 9.45 µM. For the same molecule, the TGI [8] was 41.5 µM, the GI50 [9] was 12.3 µM and the TGI [9] was > 100 µM. For the same molecule, the GI50 [10] was 25.6 µM and the TGI [10] was > 100 µM.

In the case of CNC(SC)=C1C(=O)OC(C)(C)OC1=O, the TGI [1] is reported as > 100 µM, the TGI [2] is reported as > 100 µM and the TGI [3] is reported as > 100 µM. The TGI [4] was > 100 µM, the TGI [5] was > 100 µM and the TGI [6] was > 100 µM. For the same molecule, the TGI [7] was 40.9 µM, the TGI [8] was > 100 µM and the TGI [9] was > 100 µM. For the same molecule, the TGI [10] was > 100 µM.

Molecule COc1ccc(-c2nnc(N3CCN(C(=O)CN4CCN(c5ccc(OC)cc5)CC4)CC3)nc2-c2ccc(OC)cc2)cc1 has a GI50 [1] of 16.5 µM, a TGI [1] of 44 µM and a GI50 [2] of 2.37 µM. The TGI [2] was 6.5 µM, the GI50 [3] was 25.6 µM and the TGI [3] was > 100 µM. It also gave a GI50 [4] of 12.5 µM, a TGI [4] of 39.7 µM and a GI50 [5] of 20.7 µM. For the same molecule, the TGI [5] was 46.4 µM, the GI50 [6] was 1.88 µM and the TGI [6] was 6.5 µM. It also gave a GI50 [7] of 6.96 µM, a TGI [7] of 34.6 µM and a GI50 [8] of 12.1 µM. It also gave a TGI [8] of 53.1 µM, a GI50 [9] of 2.6 µM and a TGI [9] of 6.28 µM. For the same molecule, the GI50 [10] was 15.6 µM and the TGI [10] was 44.8 µM.

With Cc1ccc2c(c1)Sc1ccc(N=NN(C)C)cc1N2C the TGI [1] was > 100 µM, the TGI [2] was > 100 µM and the TGI [3] was > 100 µM. For the same molecule, the TGI [4] was > 100 µM, the TGI [5] was > 100 µM and the TGI [6] was > 100 µM. The TGI [7] was > 100 µM, the TGI [8] was > 100 µM and the TGI [9] was > 100 µM. The TGI [10] was > 100 µM.

With CC(=O)[O-].CC(=O)[O-].CC(=O)[O-].CC(=O)[O-].[Mo+2].[Mo+2] the GI50 [1] was > 100 µM, the TGI [1] was > 100 µM and the GI50 [2] was > 100 µM. For the same molecule, the TGI [2] was > 100 µM, the GI50 [3] was > 100 µM and the TGI [3] was > 100 µM. For the same molecule, the GI50 [4] was > 100 µM, the TGI [4] was > 100 µM and the GI50 [5] was > 100 µM. The TGI [5] was > 100 µM, the GI50 [6] was > 100 µM and the TGI [6] was > 100 µM. For the same molecule, the GI50 [7] was > 100 µM, the TGI [7] was > 100 µM and the GI50 [8] was > 100 µM. The TGI [8] was > 100 µM, the GI50 [9] was > 100 µM and the TGI [9] was > 100 µM. For the same molecule, the GI50 [10] was 63.5 µM and the TGI [10] was > 100 µM.
